For experiment [1], the target named is T1, RpfR (Burkholderia cenocepacia, UniProt B4EKM4).
T1 construct: gene BCAM0580; full-length rpfR in pQE-32 (BamHI/HindIII; vector with N-terminal His tag), expressed in E. coli M15[pREP4], purified
The experiment can be described thus: PDE assay, products by anion-exchange FPLC (ResourceQ). It is filed as biochemical. The conditions noted are these: 2 uM enzyme, 100 uM substrate, 50 mM Tris-Cl pH 7.8, 500 mM NaCl, 2 mM MgCl2, 37 °C, 180 min; product pGpG.

Experiment [2] deals with T1, RpfR. The experiment can be described thus: DGC assay, products by anion-exchange FPLC (ResourceQ). It is filed as biochemical. The note with it: 2 uM enzyme, 100 uM substrate, 50 mM Tris-Cl pH 7.8, 500 mM NaCl, 2 mM MgCl2, 37 °C, 180 min; product pGpG.

Structures are written as SMILES.

T1 sequence (B4EKM4 entry or part of it): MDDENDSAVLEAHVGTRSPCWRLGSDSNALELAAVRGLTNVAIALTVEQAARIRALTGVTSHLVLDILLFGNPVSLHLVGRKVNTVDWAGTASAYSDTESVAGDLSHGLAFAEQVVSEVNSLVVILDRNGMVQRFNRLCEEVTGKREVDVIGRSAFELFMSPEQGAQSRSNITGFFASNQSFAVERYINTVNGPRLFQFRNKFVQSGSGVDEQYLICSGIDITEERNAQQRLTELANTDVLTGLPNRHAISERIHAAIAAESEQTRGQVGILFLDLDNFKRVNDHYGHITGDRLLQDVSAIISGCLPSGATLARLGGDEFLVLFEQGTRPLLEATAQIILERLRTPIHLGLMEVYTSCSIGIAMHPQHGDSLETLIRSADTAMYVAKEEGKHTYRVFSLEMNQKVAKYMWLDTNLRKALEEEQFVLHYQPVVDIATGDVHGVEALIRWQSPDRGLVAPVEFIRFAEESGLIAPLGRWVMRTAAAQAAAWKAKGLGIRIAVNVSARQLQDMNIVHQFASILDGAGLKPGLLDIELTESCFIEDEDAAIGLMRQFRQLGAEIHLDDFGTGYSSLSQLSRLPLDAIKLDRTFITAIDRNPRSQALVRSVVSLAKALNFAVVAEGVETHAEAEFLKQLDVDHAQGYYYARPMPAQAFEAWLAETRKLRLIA

In the case of `Nc1nc2c(ncn2[C@@H]2O[C@@H]3COP(=O)(O)O[C@H]4[C@@H](O)[C@H](n5cnc6c(=O)[nH]c(N)nc65)O[C@@H]4COP(=O)(O)O[C@H]3[C@H]2O)c(=O)[nH]1` [c-di-GMP], the “PDE assay, products by anion-exchange FPLC (ResourceQ)” value in experiment [1] is “Wild-type RpfR metabolized GTP as well as c-di-GMP, generating pGpG from both substrates”.

For `Nc1nc2c(ncn2[C@@H]2O[C@H](COP(=O)(O)OP(=O)(O)OP(=O)(O)O)[C@@H](O)[C@H]2O)c(=O)[nH]1` [GTP], the “DGC assay, products by anion-exchange FPLC (ResourceQ)” value in experiment [2] is “Wild-type RpfR metabolized GTP as well as c-di-GMP, generating pGpG from both substrates”.

The values are drawn from PMC9684580, “The BDSF quorum sensing receptor RpfR regulates Bep exopolysaccharide synthesis in Burkholderia cenocepacia via interaction with the transcriptional regulator BerB” (NPJ Biofilms and Microbiomes, 2022).
